{
  "source": "patent US7790188B2",
  "about": "“Antifungal protein and usage thereof” (Food Industry Research and Development Institute, priority 2006, dated 2010)",
  "key": {"[1]": {"system": "P. variotii BCRC 33174", "assay": "Antifungal activity assay (pathogen antagonistic dosage assay, paper discs on PDA plate)", "format": "cell-based, Paecilomyces variotii", "settings": "28° C.", "method": "(§1) The fungal strains for testing the antifungal activities of Monascus strains or isolated and purified antifungal protein, MAFP1, are selected from Helminthosporium panici BCRC 35004 and Paecilomyces variotii BCRC 33174. The fungal strains were inoculated on PDA (Potato Dextrose Agar, Difico Co.) culture plate and cultured at 25° C. for 7 to 14 days. Pathogen antagonistic dosage assays were conducted to confirm the antifungal activity of the purified MAFP1 protein. Fungal blocks of pathogenic fungi (P. variotii BCRC 33174 and H. panici BCRC 35004) were place in the center of PDA plates. 6 mm paper discs with different concentrations of MAFP1 solutions (containing 0 to 0.8 μg of purified MAFP1 protein) were placed surround the fungal block of pathogenic fungus. The plates were cultured at 28° C. and the growth inhibitions of the pathogenic fungi were observed."}, "[2]": {"system": "H. panici BCRC 35004", "assay": "Antifungal activity assay (pathogen antagonistic dosage assay, paper discs on PDA plate)", "format": "cell-based, Helminthosporium panici", "settings": "28° C.", "method": "as §1"}, "[3]": {"settings": "discs with 0 to 0.8 μg MAFP1, PDA plate"}},
  "data": [
    {"substance": "MAFP1: Antifungal protein of about 7 kDa purified from M. pilosus BCRC 38093 culture broth; mature form, SEQ ID NO: 3 (LSKYGGECSLQHNTCTYLKGGKNQVVHCGSAANQKCKSDRHHCEYDEHHKTVNCQTPV; listed as Monascus pilosus)", "values": [
      {"measurement": "growth inhibition of P. variotii", "setting": "[1]; 0.2 μg of purified MAFP1 protein on 6 mm paper disc, PDA plate", "result": "can significantly inhibit the growth"},
      {"measurement": "dependence of growth inhibition of pathogenic fungus on MAFP1 concentration", "setting": "[1]; [3]", "result": "the higher the MAFP1 concentration, the stronger the inhibitory activity"},
      {"measurement": "growth inhibition of H. panici", "setting": "[2]; 0.4 μg of purified MAFP1 protein on 6 mm paper disc, PDA plate", "result": "can significantly inhibit the growth"},
      {"measurement": "dependence of growth inhibition of pathogenic fungus on MAFP1 concentration", "setting": "[2]; [3]", "result": "the higher the MAFP1 concentration, the stronger the inhibitory activity"}
    ]}
  ]
}
